Data set [1] can be described thus: In vivo pharmacokinetic study in rats (IV and PO). On the set-up: species or system rat (SD). Conditions: rat; for bioavailability: plasma, PO 10 mg/kg (IV 2 mg/kg); for clearance rate relative to CC-90009 / half-life relative to CC-90009 / initial plasma concentration relative to CC-90009 / plasma drug exposure level relative to CC-90009: IV.
Procedure: Sample collection and preparation: After SPF SD rats (male, 210-230 g, 42-48 days, RILD Liver) in a good growth state were dosed intravenously at 2 mg/kg and orally at 10 mg/kg, blood samples were collected via the orbit at different blood collection time points and transferred to centrifuge tubes containing an anticoagulant; the intravenous blood collection time points were 0.08 hours, 0.25 hours, 0.5 hours, 1 hour, 2 hours, 4 hours, 6 hours, 8 hours, and 24 hours, and the oral blood collection time points were 0.25 hours, 0.5 hours, 1 hour, 2 hours, 4 hours, 6 hours, 8 hours, and 24 hours. The blood samples were immediately centrifuged at 4° C. and 8000 rpm for 10 minutes, and the plasma was collected and stored in an ultra-low-temperature freezer at −80° C. until it was analyzed by LC-MS/MS.
Pharmacokinetic data analysis: Pharmacokinetic parameters of the compounds were calculated using pharmacokinetic software in a non-compartmental model. The peak plasma concentration (Cmax) and the time to reach the peak plasma concentration (Tmax) were taken as observation values. Parameters such as the half-life T1/2, the areas under the plasma concentration-time curve AUClast and AUCinf, the apparent volume of distribution Vss, and the clearance rate CL were determined through regression analysis of the linear terminal portion of the logarithmic plasma concentration-time curve and the linear trapezoidal rule.
The nature of data set [2]: Metabolic stability in in vitro rat liver microsomes. Conditions: NADPH, 37° C. Type of data set: in vitro ADME. An excerpt:
RLMs were purchased from RILD Liver.

Data set [3] has as its target T1, GSPT1 (Homo sapiens, UniProt P15170). The data set can be described thus: Degradation of GSPT1 in MV4-11 cells (FIG. 1C, 1D). Type of data set: cell-based. Conditions: FIGS. 1 and 2. On the set-up: endogenous in cells.
For data set [4], the target named is T1, GSPT1. Nature of the data set: Degradation of GSPT1 in KG-1 cells (immunoblot, 200 nM, 4 h). On the set-up: endogenous in cells; host or cells: KG-1. Conditions: FIGS. 1 and 2. Type of data set: cell-based. The procedure: KG-1 cells (ATCC) were grown in an IMDM culture medium (containing 20% FBS). After centrifugation and counting, the cell concentration was adjusted. The cells were plated onto 6-well plates at 10^6 cells/well, with 1350 μL per well. 150 μL of DMSO and the test compounds of the present disclosure (compound concentration: 200 nM) were added. The plates were incubated in an incubator at 37° C. with 5% CO2 for 4 hours. The cells were centrifuged, and the culture medium was discarded. PBS was added to wash the cells and then discarded. Whole cell lysates were prepared using a protease inhibitor cocktail (100×, Fude Biological), a protein phosphatase inhibitor cocktail (100×, Fude Biological), SuperNuclease (Beyotime), and a high-intensity RIPA lysis buffer (Thermo Fisher) and placed on ice for 30 minutes. After centrifugation, the cell debris precipitates were discarded, and the whole cell lysate supernatants were collected and transferred to new centrifuge tubes. After a BCA protein assay, samples were prepared using a 5× loading buffer (Thermo Fisher). […] Signals were detected using a MINICHEMI™ imaging system. […]

The target of data set [5] is T1, GSPT1. Nature of the data set: Time-dependent degradation of GSPT1 in AML cells (FIG. 2). The data set is classed as cell-based. Further details: KG-1 cells (ATCC) were grown in an IMDM culture medium; endogenous in cells; host or cells: KG-1.
For the next data set, the system named is MV411 xenograft. Nature of the data set: In vivo pharmacodynamic study in MV411 acute myeloid leukemia xenograft mouse model. On the set-up: species or system human leukemia cells in BABL/c Nude mouse. The procedure: (§1) The human leukemia cells MV411 (Cell Bank, Chinese Academy of Sciences) used in this experiment were cultured in an IMDM culture medium supplemented with 10% FBS in an incubator containing CO2 at 37° C. Before the cells were continuously sub-cultured to the tenth generation, MV411 cells in the logarithmic growth phase were used, and the cell concentration was adjusted to 1×10^8 cells/mL with a serum-free culture medium. Each BABL/c Nude mouse (Jiangsu GemPharmatech Co., Ltd., female, 4-6 weeks old, 14-16 g) was inoculated with […] of the cell suspension by subcutaneous injection on the right dorsal side (near the axilla) under sterile conditions. When the mean tumor volume of the tumor-bearing mice reached approximately 100 mm^3, the mice were randomly divided into groups, with the tumor volume in each group being roughly the same. The day of grouping and administration was defined as day 0. The animals in each treatment group were given a compound once daily by oral gavage at 15 mg/kg, 30 mg/kg, or 60 mg/kg. The body weight and tumor volume of the animals were measured every other day.
Experimental indicator: The anti-tumor efficacy of the compounds was evaluated using the relative tumor growth inhibition rate (TGI). Tumor weight TGI (%)={1−[(final average tumor weight of experimental group)/(final average tumor weight of control group of tumor-bearing mice without administration)]}×100%. Tumor volume TGI (%)=[1−relative tumor volume of experimental group/relative tumor volume of control group of tumor-bearing mice without administration]×100%.

Data set [6] in a line: Body weight in MV411 xenograft mice. Conditions: A-10 15, 30, 60 mg/kg, A-42 60 mg/kg, oral. Type of data set: in vivo, BABL/c Nude mouse. The procedure:
as §1

The next data set concerns 22RV1 xenograft. The data set can be described thus: In vivo pharmacodynamic study in 22RV1 prostate cancer xenograft mouse model. Further details: species or system 22RV1 cells in BABL/c Nude mouse. The procedure: The 22RV1 cells (Cell Bank, Chinese Academy of Sciences) used in this experiment were cultured in a 1640 culture medium supplemented with 10% FBS in an incubator containing CO2 at 37° C. Before the cells were continuously sub-cultured to the tenth generation, 22RV1 cells in the logarithmic growth phase were used, and the cell concentration was adjusted to 5×10^7 cells/mL with a serum-free culture medium. Each BABL/c Nude mouse was inoculated with […] of the cell suspension by subcutaneous injection on the right dorsal side (near the axilla) under sterile conditions. When the mean tumor volume of the tumor-bearing mice reached approximately 50-100 mm^3, the mice were randomly divided into 4 groups of 8, with the tumor volume in each group being roughly the same. The day of grouping and administration was defined as day 0. The animals in each treatment group were given a compound once daily by oral gavage at 60 mg/kg.
The body weight and tumor volume of the animals were measured every other day.
Experimental indicator: The anti-tumor efficacy of the compounds was evaluated using the relative tumor growth inhibition rate (TGI). Tumor weight TGI (%)={1−[(final average tumor weight of experimental group)/(final average tumor weight of control group of tumor-bearing mice without administration)]}×100%.

A further data set concerns KG-1 cells. Nature of the data set: Antiproliferative activity against KG-1 cells (CCK8, 72 h). The data set is classed as cell-based. The note with it: Homo sapiens. The procedure:
KG-1 cells in the logarithmic growth phase were diluted in a culture medium (RPMI+10% FBS) and plated onto 96-well plates at 5000 cells/well, and the plates were incubated in an incubator at 37° C. with 5% CO2 for 24 hours. 10 mM stock solutions of the test compounds of the present disclosure in DMSO were prepared and diluted with the culture medium to set 9 concentration gradients. Three replicate wells were set for each concentration. After compound addition, the plates were incubated in an incubator at 37° C. with 5% CO2 for 72 hours. The cell proliferation was assessed using the CCK8 method. The cell growth inhibition IC50 values of the compounds were determined using an enzyme labeling method. The IC50 values were calculated using GraphPad Prism 7 software.
The antiproliferative activity of the compounds against KG-1 cells is shown in Table 2, where A represents IC50<1 nM, B represents 1<IC50<10 nM, C represents 10 nM≤IC50<100 nM, D represents 100 nM≤IC50<1000 nM, and E represents IC50≥1000 nM.

Where [7] appears, read: 60 mg/kg once daily oral gavage.

Entries after “also recorded” stand apart in the source; their conditions may differ.

T1 sequence (P15170 whole entry): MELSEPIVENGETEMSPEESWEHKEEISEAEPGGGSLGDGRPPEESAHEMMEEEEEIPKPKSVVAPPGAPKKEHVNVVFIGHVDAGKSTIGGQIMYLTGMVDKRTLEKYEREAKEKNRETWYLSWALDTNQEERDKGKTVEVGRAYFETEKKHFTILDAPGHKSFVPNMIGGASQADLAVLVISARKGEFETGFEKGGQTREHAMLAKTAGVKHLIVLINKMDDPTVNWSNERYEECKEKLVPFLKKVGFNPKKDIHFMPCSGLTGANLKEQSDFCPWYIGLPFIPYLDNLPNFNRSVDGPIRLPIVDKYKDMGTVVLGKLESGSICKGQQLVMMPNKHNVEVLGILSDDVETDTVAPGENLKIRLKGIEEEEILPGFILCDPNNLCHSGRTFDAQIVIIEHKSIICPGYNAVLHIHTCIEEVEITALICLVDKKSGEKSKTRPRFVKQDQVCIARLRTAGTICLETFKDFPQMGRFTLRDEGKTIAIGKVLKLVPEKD

In turn, `O=C1CCC(N2Cc3cc(CNC(=O)C(F)(F)c4ccc(Cl)cc4)ccc3C2=O)C(=O)N1` (centres unmarked) [CC-90009, reference compound] yielded a bioavailability in data set [1] of 31.2 ± 9.1%.

For the molecule `O=C1CCC(N2Cc3cc(CNC(=O)C4=Cc5ccccc5OC4)ccc3C2=O)C(=O)N1` (centres unmarked) [Compound A-1, N-((2-(2,6-Dioxopiperidin-3-yl)-1-oxoisoindolin-5-yl)methyl)-2H-chromene-3-carboxamide], in [2], the “RLM CL” value was 3.75 µL/min/mg and the “RLM T1/2” value was 6.1657 h. The molecule also showed a bioavailability in data set [1] of 19.3 ± 3.4%. In data set [1] (compared to CC-90009), the “clearance rate relative to CC-90009” value is “less than that of the clinical drug CC-90009”, the “half-life relative to CC-90009” value was “close to that of CC-90009”, the “initial plasma concentration relative to CC-90009” value was “greatly superior to those of CC-90009” and the “plasma drug exposure level relative to CC-90009” value was “greatly superior to those of CC-90009”. Moreover, the “dependence of GSPT1 degradation on concentration and time” value (“dependence of GSPT1 degradation” for short) at GSPT1 [3] is “concentration-dependent and time-dependent; also recorded: more significant than that of CC-90009”. The “dependence of GSPT1 degradation” value on GSPT1 [4] was “concentration-dependent and time-dependent; also recorded: more significant than that of CC-90009”.

`O=C1CCC(N2Cc3cc(CNC(=O)C4=Cc5cc(OC(F)(F)F)ccc5OC4)ccc3C2=O)C(=O)N1` (centres unmarked) [Compound A-10, N-((2-(2,6-Dioxopiperidin-3-yl)-1-oxoisoindolin-5-yl)methyl)-6-trifluoromethoxy-2H-chromene-3-carboxamide]: on GSPT1 [5], the “time-dependent degradation of GSPT1” value is given as “time-dependent”. This molecule also had a bioavailability in data set [1] of 22.9 ± 12.6%. Further, in data set [1] (compared to CC-90009), the “clearance rate relative to CC-90009” value was “one third of that of CC-90009”, the “half-life relative to CC-90009” value is “longer than that of CC-90009”, the “initial plasma concentration relative to CC-90009” value is listed as “much higher than that of CC-90009” and the “plasma drug exposure level relative to CC-90009” value is given as “nearly four times that of CC-90009”. In addition, in data set [1] (oral, compared to CC-90009), the “exposure level relative to CC-90009” value is listed as “nearly three times that of CC-90009”, the peak result is listed as “relatively high peak” and the time to peak entry was “relatively small time to peak”. Further, in the data set on MV411 xenograft (15 mg/kg once daily oral gavage), the “tumor weight TGI” value stood at 20.82%. The “tumor weight TGI” value in the data set on MV411 xenograft (30 mg/kg once daily oral gavage) is 56.61%. In addition, the “tumor weight TGI” value in the data set on MV411 xenograft (setting [7]) turned out to be 59.76%. The “in vivo anti-tumor effect compared to CC-90009” value with MV411 xenograft (MV411 xenograft, oral gavage, vs CC-90009) is reported as “significantly better than that of the clinical molecule CC-90009”. In addition, on GSPT1 [3], the “dependence of GSPT1 degradation” value is reported as “concentration-dependent”. Further, the “weight loss in mice” value in [6] is “no significant weight loss”. In the data set with 22RV1 xenograft (setting [7]), this molecule had a TGI of 95.10%. The “TGI compared to CC-90009 and enzalutamide” value with 22RV1 xenograft (22RV1 xenograft, 60 mg/kg oral gavage) is “significantly better than those of the clinical molecule CC-90009 and the commercially available drug enzalutamide”. The “dependence of GSPT1 degradation” value on GSPT1 [4] is given as “concentration-dependent”.

In the data set on KG-1 cells, `Cc1cc2c(cc1Cl)C=C(C(=O)NCc1ccc3c(c1)CN(C1CCC(=O)NC1=O)C3=O)CO2` (centres unmarked) [Compound A-28] returned an IC50 of 10 to 100 nM.

In data set [1], `O=C1CCC(N2Cc3c(ccc(CNC(=O)C4=Cc5cc(OC(F)(F)F)ccc5OC4)c3F)C2=O)C(=O)N1` (centres unmarked) [Compound A-42, N-((2-(2,6-Dioxopiperidin-3-yl)-4-fluoro-1-oxoisoindolin-5-yl)methyl)-6-(trifluoromethoxy)-2H-chromene-3-carboxamide] registered a bioavailability of 9.8 ± 1.5%. In [1] (compared to CC-90009), the “clearance rate relative to CC-90009” value is listed as “lower clearance rate” and the “plasma drug exposure level relative to CC-90009” value is recorded as “fourteen times”. Besides, the “exposure level relative to CC-90009” value in [1] (oral, compared to CC-90009) is “four times”. For the same molecule, the “in vivo anti-tumor effect compared to MRT-2359” value in the data set on MV411 xenograft (MV411 xenograft, 60 mg/kg oral gavage, vs MRT-2359) is on record as “comparable to that of the clinical molecule MRT-2359”. Further, the “weight loss in mice” value in data set [6] was “no significant weight loss”.

What is called bioavailability is dose-corrected exposure relative to a reference, in per cent. Lower therefore signals little systemic uptake. A word on the TGI: it is the reduction of tumour growth relative to the control group. A low value points to little slowing of growth. Usually IC50 stands for the concentration that inhibits the measured activity by half. A high value points to weaker potency.

For the origin of these results see patent US20260317310A1, “BENZO SIX-MEMBERED HETEROCYCLIC GSPT1 PROTEIN DEGRADATION AGENT AND USE THEREOF” (China Pharmaceutical University, priority 2023, published 2026).
